Consider 40 compounds from US10093660B2, “Sulfoximine substituted quinazolines for pharmaceutical compositions” (EVOTEC INTERNATIONAL GMBH, priority 2013, dated 2018).

One experiment deals with MNK1a (Homo sapiens (Human), UniProt Q9BUB5). Nature of the experiment: MNK1 in vitro kinase assay (Assay 3), Z'-LYTE. The experiment is classed as biochemical. To be noted: for inhibition at 1 µM: read-out: MNK1 % INH. The source says: C. MNK1 In Vitro Kinase Assay (Assay 3)
MNK1 Data can be obtained from the MNK1 Z′-LYTE® assay. The MNK1 Z′-LYTE® screening protocol and assay conditions are also described on www.invitrogen.com.
The assay is described as follows:
The Z′-LYTE® biochemical assay employs a fluorescence-based, coupled-enzyme format and is based on the differential sensitivity of phosphorylated and non-phosphorylated peptides to proteolytic cleavage. The peptide substrate is labeled with two fluorophores—one at each end—that make up a FRET pair.
In the primary reaction, the kinase transfers the gamma-phosphate of ATP to a single tyrosine, serine or threonine residue in a synthetic FRET-peptide. In the secondary reaction, a site-specific protease recognizes and cleaves non-phosphorylated FRET-peptides. Phosphorylation of FRET-peptides suppresses cleavage by the Development Reagent. Cleavage disrupts FRET between the donor (i.e., coumarin) and acceptor (i.e., fluorescein) fluorophores on the FRET-peptide, whereas uncleaved, phosphorylated FRET-peptides maintain FRET. A ratiometric method, which calculates the ratio (the Emission Ratio) of donor emission to acceptor emission after excitation of the donor fluorophore at 400 nm, is used to quantitate reaction progress, as shown in the equation below.
The 2×MKNK1 (MNK1) mixture is prepared in 50 mM HEPES pH 7.5, 0.01% BRIJ-35, 10 mM MgCl2, 4 mM MnCl2, 1 mM EGTA, 2 mM DTT.
The Test Compounds are screened in 1% DMSO (final) in the well.
All Peptide/Kinase Mixtures are diluted to a 2× working concentration in the MNK1 Kinase Buffer.
All ATP Solutions are diluted to a 4× working concentration in Kinase Buffer (50 mM HEPES pH 7.5, 0.01% BRIJ-35, 10 mM MgCl2, 1 mM EGTA).
Development Reagent Solution:
The Development Reagent is diluted in Development Buffer
1. 2.5 μL—4× Test Compound
2. 5 μL—2× Peptide/Kinase Mixture
5. 60-minute Kinase Reaction incubation at room temperature
6. 5 μL—Development Reagent Solution
8. 60-minute Development Reaction incubation at room temperature
9. Read on fluorescence plate reader and analyze the data
Control C0%=Average Coumarin emission signal of the 0% Phos. Control F100%=Average Fluorescein emission signal of the 100% Phos. Control F0%=Average Fluorescein emission signal of the 0% Phos. Control Graphing Software
SelectScreen® Kinase Profiling Service uses XLfit from IDBS. […] The activity of MNK proteins can be assayed also by other in vitro kinase assay formats. […] In general, MNK kinase assays can be performed such that a MNK substrate such as a protein or a peptide, which may or may not include modifications as further described below, or others are phosphorylated by MNK proteins having enzymatic activity in vitro. The activity of a candidate agent can then be determined via its ability to decrease the enzymatic activity of the MNK protein. The kinase activity may be detected by change of the chemical, physical or immunological properties of the substrate due to phosphorylation.

In a further experiment the target is MNK2a (Homo sapiens (Human), UniProt Q9HBH9). In words: MNK2a in vitro kinase assay (Assay 2), ADP-Glo. To be noted: assay 2; read-out: MNK2 IC50. The experiment is classed as biochemical. From the text: B. MNK2a In Vitro Kinase Assay (Assay 2)
MNK2a, sequence (Q9HBH9 whole entry): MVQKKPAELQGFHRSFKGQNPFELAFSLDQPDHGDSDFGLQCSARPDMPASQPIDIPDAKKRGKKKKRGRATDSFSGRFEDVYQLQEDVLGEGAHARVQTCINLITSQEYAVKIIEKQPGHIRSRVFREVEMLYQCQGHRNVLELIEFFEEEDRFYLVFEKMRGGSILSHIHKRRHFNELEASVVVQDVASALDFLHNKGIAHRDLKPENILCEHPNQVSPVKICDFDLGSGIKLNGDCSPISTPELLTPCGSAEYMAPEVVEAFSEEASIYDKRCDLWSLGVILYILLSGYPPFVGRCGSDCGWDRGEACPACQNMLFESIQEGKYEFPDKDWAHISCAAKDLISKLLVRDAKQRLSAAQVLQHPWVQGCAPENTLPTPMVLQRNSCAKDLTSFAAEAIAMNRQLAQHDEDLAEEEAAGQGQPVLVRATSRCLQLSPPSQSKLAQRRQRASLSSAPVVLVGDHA
For orientation: In ADP-Glo the light output rises with the ADP produced.

MNK1a, sequence (Q9BUB5 other isoform, or with tags, fused parts or gaps): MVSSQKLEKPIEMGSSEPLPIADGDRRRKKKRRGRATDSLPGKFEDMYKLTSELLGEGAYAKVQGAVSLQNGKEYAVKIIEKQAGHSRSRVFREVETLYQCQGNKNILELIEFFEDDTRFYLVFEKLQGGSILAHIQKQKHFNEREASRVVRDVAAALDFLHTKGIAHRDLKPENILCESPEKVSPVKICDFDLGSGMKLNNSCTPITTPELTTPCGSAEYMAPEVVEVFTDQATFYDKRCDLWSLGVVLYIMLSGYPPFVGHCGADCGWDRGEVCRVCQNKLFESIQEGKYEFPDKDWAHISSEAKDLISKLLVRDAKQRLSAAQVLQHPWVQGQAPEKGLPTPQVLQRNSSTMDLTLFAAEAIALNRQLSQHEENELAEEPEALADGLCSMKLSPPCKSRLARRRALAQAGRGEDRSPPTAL

On to `CO[C@@H]1CN(C)C[C@H]1Oc1cc(F)ccc1Nc1ncnc2cc(N=S(C)(C)=O)cc(C)c12` [Example 11.1], for which the inhibition at 1 µM on MNK1a (compound concentration of 1 μM) came to 44%. For the same compound, the IC50 at MNK2a was 54 nM.

For the compound `Cc1cc(N=S(C)(C)=O)cc2ncnc(Nc3ccc(F)cc3O[C@H]3CNC[C@@H]3O)c12` [Example 3.7], the inhibition at 1 µM at MNK1a (compound concentration of 1 μM) came to 84%. On MNK2a, the half-maximal inhibitory concentration (IC50) is 38 nM. The like results for `CC(=O)O[C@@H]1COC[C@@H]1Oc1cc(F)ccc1Nc1ncnc2cc(N=S(C)(C)=O)cc(C)c12` (racemic) [Example 6.9] were, in that order, 90% and 7 nM. `Cc1cc(N=S(C)(C)=O)cc2ncnc(Nc3ccc(Cl)nc3O[C@@H]3COC[C@H]3O)c12` [Example 2.48]: at MNK1a (compound concentration of 1 μM), the inhibition at 1 µM is 90%. For the same compound, the IC50 on MNK2a was 7 nM. On to `Cc1cc(N=S2(=O)CCCC2)cc2ncnc(Nc3ccc(Cl)cc3O[C@@H]3COC[C@H]3O)c12` [Example 1.32], for which, at MNK1a (compound concentration of 1 μM), the inhibition at 1 µM is 94%. The IC50 at MNK2a was 4 nM. The like results for `CO[C@@H]1CCC(Oc2cc(F)ccc2Nc2ncnc3cc(N=S4(=O)CCC4)cc(C)c23)CO1` (mixture of isomers) [Example 2.56] were, in that order, 95% and 2 nM.

Turning to `COc1cc(N=S2(=O)CCCC2)cc2ncnc(Nc3ccc(F)cc3O[C@H]3COC[C@H]3O)c12` (racemic) [Example 9.13], the inhibition at 1 µM on MNK1a (compound concentration of 1 μM) was 99%. On MNK2a, the IC50 came out at 6 nM. On to `CO[C@@H]1COC[C@@H]1Oc1cc(F)ccc1Nc1ncnc2cc(N=S3(=O)CCCC3)cc(C)c12` (racemic) [Example 2.10], for which the inhibition at 1 µM on MNK1a (compound concentration of 1 μM) is 105%. At MNK2a, the IC50 turned out to be 2 nM. For `CO[C@@H]1CNC[C@H]1Oc1cc(F)ccc1Nc1ncnc2cc(N=S(C)(C)=O)cc(C)c12` [Example 4.1] the same measures were 64% and 45 nM. Turning to `Cc1cc(N=S2(=O)CCCC2)cc2ncnc(Nc3ccc(F)cc3O[C@@H]3CN(C)C[C@H]3O)c12` [Example 2.5], the inhibition at 1 µM at MNK1a (compound concentration of 1 μM) was found to be 85%. The IC50 on MNK2a is 17 nM. Consider `Cc1cc(N=S(C)(=O)C2CCOCC2)cc2ncnc(Nc3ccc(F)cc3O[C@@H]3COC[C@@H]3O)c12` (mixture of isomers) [Example 2.65], for which the inhibition at 1 µM at MNK1a (compound concentration of 1 μM) was determined as 100%. Also, on MNK2a, the IC50 came to 10 nM. For `CS(C)(=O)=Nc1cc(F)c2c(Nc3ccc(F)cc3O[C@H]3COC[C@@H]3O)ncnc2c1` [Example 2.55], the inhibition at 1 µM at MNK1a (compound concentration of 1 μM) was 91%. Besides, on MNK2a, the IC50 amounted to 3 nM. For the compound `O=S1(=Nc2cc(Cl)c3c(Nc4ccc(F)cc4O[C@H]4COC[C@H]4O)ncnc3c2)CCCC1` (single isomer, unassigned) [Example 14.10], the inhibition at 1 µM on MNK1a (compound concentration of 1 μM) stood at 101%. In addition, the IC50 on MNK2a worked out at 2 nM. In the case of `COc1cc(N=S(C)(=O)c2cccnc2)cc2ncnc(Nc3ccc(F)cc3O[C@H]3COC[C@@H]3O)c12` (stereo partly shown) [Example 9.14], the inhibition at 1 µM at MNK1a (compound concentration of 1 μM) is 84%. For the same compound, the IC50 on MNK2a amounted to 13 nM.

As for `CO[C@@H]1CNC[C@H]1Oc1cc(F)ccc1Nc1ncnc2cc(N=S3(=O)CCCC3)cc(C)c12` [Example 4.2], the inhibition at 1 µM on MNK1a (compound concentration of 1 μM) stood at 87%. In addition, at MNK2a, the IC50 is 8 nM. Turning to `COc1cc(N=S(C)(C)=O)cc2ncnc(Nc3ccc(Cl)nc3O[C@H]3COC[C@@H]3O)c12` [Example 8.2], on MNK1a (compound concentration of 1 μM), the inhibition at 1 µM was 100%. On MNK2a, the concentration for half-maximal inhibition (IC50) was 3 nM. The like results for `Cc1cc(N=S(C)(C)=O)cc2ncnc(Nc3cccnc3O[C@@H]3CNC[C@H]3O)c12` [Example 3.2] were, in that order, 66% and 47 nM. On to `Cc1cc(N=S(C)(C)=O)cc2ncnc(Nc3ccc(F)cc3O[C@H]3COC[C@H]3OC3COC3)c12` (racemic) [Example 7.3], for which the inhibition at 1 µM at MNK1a (compound concentration of 1 μM) was found to be 93%. The IC50 at MNK2a amounted to 7 nM. Regarding `Cc1cc(N=S(C)(C)=O)cc2ncnc(Nc3ccc(F)cc3O[C@H]3COC[C@H]3OCC(F)F)c12` (racemic) [Example 10.3], the IC50 at MNK1a was 41 nM; on MNK2a, 3 nM. As for `O=S1(=Nc2cc(Cl)c3c(Nc4ccc(F)cc4O[C@@H]4COC[C@@H]4O)ncnc3c2)CCCC1` (single isomer, unassigned) [Example 14.9], the inhibition at 1 µM on MNK1a (compound concentration of 1 μM) was determined as 100%. The half-maximal inhibitory concentration (IC50) on MNK2a came to 3 nM.

Turning to `CC(=O)N1C[C@@H](O)[C@H](Oc2ncccc2Nc2ncnc3cc(N=S4(=O)CCCC4)cc(C)c23)C1` [Example 2.23], at MNK1a (compound concentration of 1 μM), the inhibition at 1 µM turned out to be 75%. Moreover, the IC50 at MNK2a was 23 nM. For `CO[C@@H]1CN(C(=O)OCc2ccccc2)C[C@H]1Oc1cc(F)ccc1Nc1ncnc2cc(N=S(C)(C)=O)cc(C)c12` [Example 2.14] the same measures were 19% and 108 nM. For `Cc1cc(N=S(C)(C)=O)cc2ncnc(Nc3cccnc3O[C@H]3COC[C@@H]3O)c12` [Example 2.28], the inhibition at 1 µM on MNK1a (compound concentration of 1 μM) worked out at 85%. For the same compound, the half-inhibitory concentration (IC50) at MNK2a amounted to 11 nM. As for `CO[C@@H]1CN(S(C)(=O)=O)C[C@H]1Oc1ncccc1Nc1ncnc2cc(N=S(C)(C)=O)cc(C)c12` [Example 6.6], the half-inhibitory concentration (IC50) against MNK1a was 1400 nM; on MNK2a, 80 nM. Turning to `CS(C)(=O)=Nc1cc(Cl)c2c(Nc3ccc(F)cc3O[C@@H]3COC[C@H]3O)ncnc2c1` [Example 1.26], the inhibition at 1 µM on MNK1a (compound concentration of 1 μM) was 99%. The IC50 on MNK2a was found to be 3 nM. Take `Cc1cc(N=S2(=O)CCCC2)cc2ncnc(Nc3ccc(Cl)cc3O[C@H]3COC[C@@H]3O)c12` [Example 1.27]: the IC50 on MNK1a is 33 nM; on MNK2a, 3 nM. For `Cc1cc(N=S2(=O)CCC(C)C2)cc2ncnc(Nc3ccc(F)cc3O[C@@H]3COC[C@@H]3O)c12` (mixture of isomers) [Example 2.83], the inhibition at 1 µM on MNK1a (compound concentration of 1 μM) was 97%. Further, the half-maximal inhibitory concentration (IC50) on MNK2a came out at 4 nM. For `CC(=O)N1C[C@@H](O)[C@H](Oc2cc(F)ccc2Nc2ncnc3cc(N=S4(=O)CCCC4)cc(C)c23)C1` [Example 2.13], the inhibition at 1 µM at MNK1a (compound concentration of 1 μM) came out at 90%. Also, the half-inhibitory concentration (IC50) at MNK2a was found to be 16 nM.

`Cc1c(F)c(N=S(C)(C)=O)cc2ncnc(Nc3ccc(F)cc3O[C@H]3COC[C@@H]3O)c12` [Example 1.33]: on MNK1a (compound concentration of 1 μM), the inhibition at 1 µM worked out at 96%. The IC50 at MNK2a is 8 nM.

On to `Cc1cc(N=S(C)(C)=O)cc2ncnc(Nc3ccc(F)cc3O[C@H]3COC[C@H]3O)c12` (racemic) [Example 2.7], for which, on MNK1a (compound concentration of 1 μM), the inhibition at 1 µM is 97%.

As to `Cc1cc(N=S2(=O)CCCC2)cc2ncnc(Nc3cccnc3O[C@@H]3COC[C@@H]3O)c12` (single isomer, unassigned) [Example 14.3], the inhibition at 1 µM at MNK1a (compound concentration of 1 μM) was determined as 100%. As to `Cc1cc(N=S2(=O)CCC2)cc2ncnc(Nc3cccnc3O[C@@H]3COC[C@H]3O)c12` [Example 2.49], the inhibition at 1 µM on MNK1a (compound concentration of 1 μM) came out at 94%. Turning to `Cc1cc(N=S2(=O)CCCCC2)cc2ncnc(Nc3cccnc3O[C@H]3COC[C@H]3O)c12` (racemic) [Example 2.31], the inhibition at 1 µM on MNK1a (compound concentration of 1 μM) was determined as 94%. Still for that read-out and setting: then `O=S1(=Nc2cc(F)c3c(Nc4ccc(F)cc4O[C@H]4COC[C@@H]4O)ncnc3c2)CCCC1` [Example 2.66], with 100%; and `Cc1cc(N=S2(=O)CCC2)cc2ncnc(Nc3ccc(F)cc3O[C@H]3COC[C@H]3O)c12` (single isomer, unassigned) [Example 1.37], with 97%; and `Cc1cc(N=S2(=O)CCCC2)cc2ncnc(Nc3cccnc3O[C@H]3COC[C@@H]3O)c12` [Example 2.24], with 99%.

As to `Cc1cc(N=S2(=O)CCC2)cc2ncnc(Nc3ccc(F)cc3O[C@@H]3COC[C@@H]3O)c12` (racemic) [Example 2.67], the inhibition at 1 µM at MNK1a (compound concentration of 1 μM) came to 100%. For `O=S1(=Nc2cc(F)c3c(Nc4cccnc4O[C@H]4COC[C@H]4O)ncnc3c2)CCCC1` (racemic) [Example 2.30], at MNK1a (compound concentration of 1 μM), the inhibition at 1 µM stood at 97%. Regarding `Cc1cc(N=S(C)(C)=O)cc2ncnc(Nc3ccc(F)cc3O[C@H]3COC[C@@H]3O)c12` [Example 2.45], on MNK1a, the IC50 worked out at 92 nM. Further, at MNK1a (compound concentration of 1 μM), the “MNK1 % INH” value worked out at 92%. With `O=S1(=Nc2cc(F)c3c(Nc4cccnc4O[C@H]4COC[C@H]4O)ncnc3c2)CCC1` (racemic) [Example 2.33], on MNK1a (compound concentration of 1 μM), the inhibition at 1 µM is 91%.

In general, IC50 refers to the concentration that gives 50% inhibition.
